The target in data set [1] is T1, human cytochrome P450 (CYP) 3A4 (Homo sapiens, UniProt P08684).
T1 construct: made in house; host or cells: yeast cell lines (microsomal fractions)
Nature of the data set: Cytochrome P450 Inhibition Assay 3A4. The conditions noted are these: test compound final concentrations 0.1-10 μM; substrate BFC. Type of data set: in vitro ADME. The protocol:
(§1) The inhibitory potential (IC50) of test compounds against 5 human cytochrome P450 (CYP) isoforms (1A2, 2C9, 2C19, 3A4 and 2D6) was assessed using an automated fluorescent end point in vitro assay modified from Crespi (Crespi and Stresser, 2000). Microsomal subcellular fractions prepared from Yeast cell lines expressing each human CYP isoform were used as an enzyme source in this assay. The activity of the 5 major human CYPs was determined from the biotransformation of a number of coumarin substrates to fluorescent metabolites, in the presence of NADPH. […] Stock solutions of each CYP, with its respective substrate, were prepared in phosphate buffer pH7.4 (see Table 1) and 178 μl was added to the well of a black solid, flat bottom, 300 μl 96 well is microtitre plate (Corning Costar). […] After pre-incubating at 37° C. for 5 min the reactions were started with addition of NADPH (20 μl, concentration shown in Table 1). […] The appropriate solvent controls and substrate blanks were included in each experiment to assess control activity and identify any inherent fluorescence due to the test compounds. […] The plates were read on a fluorimeter (Spectrafluor Plus) at the appropriate excitation and emission wavelengths (listed in Table 2) and the percent activity, corrected for control, was plotted against the test compound concentration.

For data set [2], the target named is T2, human cytochrome P450 (CYP) 2C19 (Homo sapiens, UniProt P33261).
T2 construct: made in house; host or cells: yeast cell lines (microsomal fractions)
T2 sequence (P33261 whole entry): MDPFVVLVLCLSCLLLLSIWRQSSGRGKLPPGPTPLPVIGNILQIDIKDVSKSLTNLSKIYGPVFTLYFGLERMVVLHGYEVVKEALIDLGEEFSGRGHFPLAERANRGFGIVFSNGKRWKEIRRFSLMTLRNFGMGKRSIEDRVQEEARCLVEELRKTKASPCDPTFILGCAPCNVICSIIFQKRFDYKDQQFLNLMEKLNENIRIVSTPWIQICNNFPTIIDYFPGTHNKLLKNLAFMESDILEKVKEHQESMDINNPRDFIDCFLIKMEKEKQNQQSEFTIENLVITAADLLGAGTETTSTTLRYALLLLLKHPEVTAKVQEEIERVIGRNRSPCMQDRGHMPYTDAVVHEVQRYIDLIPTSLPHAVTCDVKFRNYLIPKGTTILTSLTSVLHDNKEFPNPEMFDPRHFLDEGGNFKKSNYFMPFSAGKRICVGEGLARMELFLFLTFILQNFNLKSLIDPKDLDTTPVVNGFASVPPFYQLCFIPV
Briefly: Cytochrome P450 Inhibition Assay 2C19. The format is in vitro ADME. To be noted: test compound final concentrations 0.1-10 μM; substrate MFC; read-out: Ic50 2C19. On the procedure:
The inhibitory potential (IC50) of test compounds against 5 human cytochrome P450 (CYP) isoforms (1A2, 2C9, 2C19, 3A4 and 2D6) was assessed using an automated fluorescent end point in vitro assay modified from Crespi (Crespi and Stresser, 2000). Microsomal subcellular fractions prepared from Yeast cell lines expressing each human CYP isoform were used as an enzyme source in this assay. The activity of the 5 major human CYPs was determined from the biotransformation of a number of coumarin substrates to fluorescent metabolites, in the presence of NADPH. […] Stock solutions of each CYP, with its respective substrate, were prepared in phosphate buffer pH7.4 (see Table 1) and 178 μl was added to the well of a black solid, flat bottom, 300 μl 96 well is microtitre plate (Corning Costar). […] After pre-incubating at 37° C. for 5 min the reactions were started with addition of NADPH (20 μl, concentration shown in Table 1). The final solvent content in each incubation was <=2% (1% from the test compound and a maximum of 1% from the substrate). The appropriate solvent controls and substrate blanks were included in each experiment to assess control activity and identify any inherent fluorescence due to the test compounds. In addition, known inhibitors of each CYP were included as positive controls (see Table 3 for inhibitor concentrations and expected IC50 ranges). The reactions were stopped at defined timepoints (see Table 1) by quenching with 100 μl of solvent (acetonitrile:0.5M Tris buffer 80:20 v/v). The plates were read on a fluorimeter (Spectrafluor Plus) at the appropriate excitation and emission wavelengths (listed in Table 2) and the percent activity, corrected for control, was plotted against the test compound concentration.

Data set [3] in a line: LogD (shake flask method). Type of data set: physicochemical. An excerpt:
LogD can be measured using the generic shake flask method as described in Lars-Goran Danielsson, Yu Hui Zhang, Trends in Analytical Chemistry, 1996, 15(4), 188-196, and also by the method described in B. Law and D. Temesi, J. Chromatogr. B 748 (2000), 21-30.

The target in data set [4] is T3, human cytochrome P450 (CYP) 1A2 (Homo sapiens, UniProt P05177).
T3 construct: made in house; host or cells: yeast cell lines (microsomal fractions)
T3 sequence (P05177 1-516): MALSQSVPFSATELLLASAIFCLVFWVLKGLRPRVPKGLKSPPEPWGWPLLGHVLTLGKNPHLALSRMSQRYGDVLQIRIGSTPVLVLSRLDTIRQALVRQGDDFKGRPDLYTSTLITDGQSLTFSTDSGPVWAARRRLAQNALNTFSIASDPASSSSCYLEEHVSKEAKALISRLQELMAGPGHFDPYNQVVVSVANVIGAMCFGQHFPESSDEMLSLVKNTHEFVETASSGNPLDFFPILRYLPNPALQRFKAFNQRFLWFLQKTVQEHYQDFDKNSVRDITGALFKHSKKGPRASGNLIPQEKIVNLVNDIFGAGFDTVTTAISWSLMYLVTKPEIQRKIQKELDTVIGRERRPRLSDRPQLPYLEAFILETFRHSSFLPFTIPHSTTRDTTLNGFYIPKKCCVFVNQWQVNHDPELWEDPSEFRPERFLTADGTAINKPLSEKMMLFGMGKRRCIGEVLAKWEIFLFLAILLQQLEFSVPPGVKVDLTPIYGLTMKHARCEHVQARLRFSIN
Briefly: Cytochrome P450 Inhibition Assay 1A2. The format is in vitro ADME. The conditions noted are these: test compound final concentrations 0.1-10 μM; substrate CEC. The protocol:
The inhibitory potential (IC50) of test compounds against 5 human cytochrome P450 (CYP) isoforms (1A2, 2C9, 2C19, 3A4 and 2D6) was assessed using an automated fluorescent end point in vitro assay modified from Crespi (Crespi and Stresser, 2000). Microsomal subcellular fractions prepared from Yeast cell lines expressing each human CYP isoform were used as an enzyme source in this assay. The activity of the 5 major human CYPs was determined from the biotransformation of a number of coumarin substrates to fluorescent metabolites, in the presence of NADPH. […] Comparison of the fluorescence observed in the presence of varying concentrations of test compound with that seen in its absence allowed an IC50 value to be calculated. Stock solutions of each CYP, with its respective substrate, were prepared in phosphate buffer pH7.4 (see Table 1) and 178 μl was added to the well of a black solid, flat bottom, 300 μl 96 well is microtitre plate (Corning Costar). […] The appropriate solvent controls and substrate blanks were included in each experiment to assess control activity and identify any inherent fluorescence due to the test compounds. […] The plates were read on a fluorimeter (Spectrafluor Plus) at the appropriate excitation and emission wavelengths (listed in Table 2) and the percent activity, corrected for control, was plotted against the test compound concentration.

The target of data set [5] is T4, human cytochrome P450 (CYP) 2C9 (Homo sapiens, UniProt P11712).
T4 construct: made in house; host or cells: yeast cell lines (microsomal fractions)
T4 sequence (P11712 whole entry): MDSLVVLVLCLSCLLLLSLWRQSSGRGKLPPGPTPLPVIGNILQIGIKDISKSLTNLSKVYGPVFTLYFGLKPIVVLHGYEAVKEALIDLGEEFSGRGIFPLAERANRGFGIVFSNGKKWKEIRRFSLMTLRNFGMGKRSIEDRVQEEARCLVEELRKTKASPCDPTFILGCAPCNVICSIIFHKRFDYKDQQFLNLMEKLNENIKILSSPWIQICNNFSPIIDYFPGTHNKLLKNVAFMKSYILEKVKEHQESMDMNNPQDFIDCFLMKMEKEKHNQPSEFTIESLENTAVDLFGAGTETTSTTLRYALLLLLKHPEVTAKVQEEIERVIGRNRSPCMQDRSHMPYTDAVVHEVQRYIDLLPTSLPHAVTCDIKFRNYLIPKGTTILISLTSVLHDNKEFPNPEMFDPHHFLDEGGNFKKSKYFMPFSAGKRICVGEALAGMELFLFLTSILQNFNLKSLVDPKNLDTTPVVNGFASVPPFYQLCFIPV
Briefly: Cytochrome P450 Inhibition Assay 2C9. Type of data set: in vitro ADME. The conditions noted are these: test compound final concentrations 0.1-10 μM; substrate MFC. The protocol: as §1

Data set [6] can be described thus: Solubility in 0.1 M phosphate buffer pH 7.4. The format is physicochemical. To be noted: pH 7.4, 24 h. On the procedure:
Solubility values are determined by agitation of compounds in 0.1 M phosphate buffer at pH 7.4 for 24 h at 25° C. The supernatant is separated from undissolved material by double centrifugation and subsequently analyzed and quantified against a standard of known concentration in DMSO using generic HPLC-UV methodology coupled with mass spectral peak identification (J. Med. Chem., 2006, 49(23), 6672-6682).

Converted amounts (≈) assume the structure as drawn. Some results are limits rather than exact numbers.

T1 sequence (P08684 whole entry): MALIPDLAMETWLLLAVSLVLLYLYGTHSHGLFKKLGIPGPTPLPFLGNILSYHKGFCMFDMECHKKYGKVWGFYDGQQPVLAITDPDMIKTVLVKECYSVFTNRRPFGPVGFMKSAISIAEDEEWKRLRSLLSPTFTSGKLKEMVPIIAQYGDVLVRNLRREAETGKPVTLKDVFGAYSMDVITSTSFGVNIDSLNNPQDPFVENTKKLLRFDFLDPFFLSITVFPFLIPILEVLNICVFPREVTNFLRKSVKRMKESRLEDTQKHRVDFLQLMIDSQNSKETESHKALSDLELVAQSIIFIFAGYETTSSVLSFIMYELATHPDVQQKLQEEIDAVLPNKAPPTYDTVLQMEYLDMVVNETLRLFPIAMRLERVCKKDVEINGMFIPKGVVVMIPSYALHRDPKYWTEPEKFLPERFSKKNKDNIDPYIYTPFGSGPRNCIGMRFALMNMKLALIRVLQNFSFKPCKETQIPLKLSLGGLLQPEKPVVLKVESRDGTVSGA

For `COc1cc(Nc2cc(C)n[nH]2)nc(N2CCC[C@H]2c2cc(-c3ncccn3)no2)n1` [Example 1, (S)-6-Methoxy-2-{2-[3-(pyrimid-2-yl)isoxazol-5-yl]pyrrolidin-1-yl}-4-(5-methyl-1H-pyrazol-3-ylamino)pyrimidine], the IC50 in data set [1], in data set [2], in data set [4] and in data set [5] was greater than 10 µM throughout. The same compound had a logD in data set [3] of 3.12. The compound further gave a solubility at 24 h in data set [6] (25° C.) of 160 µM (≈ 67.1 µg/mL).
As for `CCc1cc(Nc2cc(OC)nc(N3CCC[C@H]3c3cc(-c4ncccn4)no3)n2)n[nH]1` [Comparative Example A, (S)-6-Methoxy-2-{2-[3-(pyrimid-2-yl)isoxazol-5-yl]pyrrolidin-1-yl}-4-(5-ethyl-1H-pyrazol-3-ylamino)pyrimidine], the half-maximal inhibitory concentration (IC50) is greater than 10 µM in data set [1], greater than 10 µM in data set [2], 1.87 µM in data set [4] and greater than 10 µM in data set [5]. The same compound came in with a logD in data set [3] of 3.43. In data set [6] (phosphate buffer, 25 °C, pH 7.4, aqueous buffer, thermodynamic from solid), this compound registered a solubility at 24 h of 9.24 µM (≈ 4.01 µg/mL).

These data come from US20080269266A1, “NOVEL COMPOUNDS 747” (ASTRAZENECA AB, priority 2007, published 2008).
